Measured values as given in patent publication US20250163043A1 (TRANSTHERA SCIENCES (NANJING), INC., priority 2021, published 2025).

Assays:
[1] = test system: NCI-H929 (human myeloma cells); assay: CCK-8 cell proliferation assay, NCI-H929; assay type: cell-based; conditions: 72 h incubation, 11 concentrations from 5000 nM, 3-fold
Protocol: Test samples: the compounds of the present invention, having structures shown above.
RMPI 1640, Fetal Bovine Serum (FBS), a CCK-8 method cell proliferation assay kit, DMSO (dimethyl sulfoxide), a 96-well cell culture plate, an Iscov'Modified Dulbecco's culture medium (IMDM), a multifunctional microplate reader,
MV-4-11 (human myelomonocytic leukemia cells) and NCI-H929 (human myeloma cells).
The compounds were dissolved in DMSO and diluted 3-fold in the 96-well plate to obtain stock solutions with 11 concentration gradients. Each cell was inoculated into a 96-well plate, and the diluted compound stock solution was added to the 96-well plate to obtain a series of 11 concentration gradients of compound solutions with final concentrations of 5000 nM starting and 3-fold gradient decreasing, wherein the final DMSO content was […]. There was a medium containing 1‰ DMSO in the negative control well. The treated cells were incubated at 37° C. with 5% CO2 and 95% humidity, wherein MV-4-11 were incubated for 24 h and NCI-H929 for 72 h. After incubation was completed, each well was added with 10 μL of CCK-8 reagent, incubated for 1-3 h at room temperature and placed in the microplate reader, and the absorbance was read at 450 nm.
The inhibition rate was calculated according to the following formula: […]
ODcmpd: compound absorbance; ODpositive: average value of the absorbance of positive control without compound; ODvehicle: average value of the absorbance of solvent vehicle control.
IC50 values were fitted using GraphPad 7.0 based on inhibition rates of compounds at different concentrations.

CDK9/CycT1 = CDK9/CycT1 (Homo sapiens, UniProt P50750); assay: ADP-Glo kinase assay on CDK enzymatic activity, CDK9/CycT1; assay type: biochemical; conditions: 10 concentrations from 10 μM, 4-fold, 60 min room temperature
Summary of the method: (§1)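 Steps: compound (10 μM top, 4-fold series) plus kinase, 10 min RT; add substrate/ATP mix, 60 min RT; ADP-Glo reagent 40 min; detection reagent 40 min; read luminescence. Inhibition referenced to AZD4573 (1 μM) and DMSO vehicle; IC50 by nonlinear fit.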

CDK5/p25NCK = CDK5/p25NCK (Homo sapiens, UniProt Q00535); assay: ADP-Glo kinase assay on CDK enzymatic activity, CDK5/p25NCK; assay type: biochemical; conditions: 10 concentrations from 10 μM, 4-fold, 60 min room temperature
Summary of the method: as §1

CDK1/CycE1 = CDK1/CycE1 (Homo sapiens, UniProt P06493); assay: ADP-Glo kinase assay on CDK enzymatic activity, CDK1/CycE1; assay type: biochemical; conditions: ADP-Glo; 10 concentrations from 10 μM, 4-fold; 60 min room temperature; read-out: CDK1/CycE1/nM (IC50)
Summary of the method: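 Compounds in 10-point 4-fold dilutions from 10 μM final, preincubated 10 min with kinase, then substrate/ATP added; 60 min reaction at room temperature. ADP-Glo luminescence read.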

CDK2/CycA2 = CDK2/CycA2 (Homo sapiens, UniProt P24941); assay: ADP-Glo kinase assay on CDK enzymatic activity, CDK2/CycA2; assay type: biochemical; conditions: 10 concentrations from 10 μM, 4-fold, 60 min room temperature
Summary of the method: as §1

CDK3/CycE1 = CDK3/CycE1 (Homo sapiens, UniProt Q00526); assay: ADP-Glo kinase assay on CDK enzymatic activity, CDK3/CycE1; assay type: biochemical; conditions: 10 concentrations from 10 μM, 4-fold, 60 min room temperature
Summary of the method: as §1

Sequence of CDK9/CycT1 (P50750 whole entry): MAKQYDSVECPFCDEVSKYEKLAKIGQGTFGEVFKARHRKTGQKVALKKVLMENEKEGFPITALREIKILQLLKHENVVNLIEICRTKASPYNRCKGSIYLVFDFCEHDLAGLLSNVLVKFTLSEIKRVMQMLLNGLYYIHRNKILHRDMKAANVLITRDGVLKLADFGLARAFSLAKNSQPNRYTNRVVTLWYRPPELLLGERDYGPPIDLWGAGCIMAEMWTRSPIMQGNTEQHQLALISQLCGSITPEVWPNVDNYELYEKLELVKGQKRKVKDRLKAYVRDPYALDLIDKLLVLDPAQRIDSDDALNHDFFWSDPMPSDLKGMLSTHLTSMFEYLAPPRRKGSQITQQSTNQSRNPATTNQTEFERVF
Sequence of CDK9/CycT1 (O60563 whole entry partner): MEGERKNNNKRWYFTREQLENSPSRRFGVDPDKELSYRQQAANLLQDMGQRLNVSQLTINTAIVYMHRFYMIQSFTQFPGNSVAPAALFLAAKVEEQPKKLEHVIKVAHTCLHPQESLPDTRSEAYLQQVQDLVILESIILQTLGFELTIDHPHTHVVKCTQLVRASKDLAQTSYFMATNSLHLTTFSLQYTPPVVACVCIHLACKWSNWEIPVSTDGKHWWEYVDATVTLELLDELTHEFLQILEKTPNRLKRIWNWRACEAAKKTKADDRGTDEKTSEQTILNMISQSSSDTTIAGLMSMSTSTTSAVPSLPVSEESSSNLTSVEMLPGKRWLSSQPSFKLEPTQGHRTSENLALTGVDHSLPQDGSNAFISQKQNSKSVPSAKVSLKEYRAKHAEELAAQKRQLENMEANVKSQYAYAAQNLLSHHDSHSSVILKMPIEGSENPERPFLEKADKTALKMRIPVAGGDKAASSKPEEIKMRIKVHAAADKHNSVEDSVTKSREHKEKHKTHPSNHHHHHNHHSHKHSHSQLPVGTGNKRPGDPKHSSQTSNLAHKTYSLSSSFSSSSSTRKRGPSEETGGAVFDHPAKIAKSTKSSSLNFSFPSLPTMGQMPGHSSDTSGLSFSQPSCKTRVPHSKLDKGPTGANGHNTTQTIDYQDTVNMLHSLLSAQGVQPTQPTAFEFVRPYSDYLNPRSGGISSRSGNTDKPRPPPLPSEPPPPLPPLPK
Sequence of CDK1/CycE1 (P06493 whole entry, species assumed): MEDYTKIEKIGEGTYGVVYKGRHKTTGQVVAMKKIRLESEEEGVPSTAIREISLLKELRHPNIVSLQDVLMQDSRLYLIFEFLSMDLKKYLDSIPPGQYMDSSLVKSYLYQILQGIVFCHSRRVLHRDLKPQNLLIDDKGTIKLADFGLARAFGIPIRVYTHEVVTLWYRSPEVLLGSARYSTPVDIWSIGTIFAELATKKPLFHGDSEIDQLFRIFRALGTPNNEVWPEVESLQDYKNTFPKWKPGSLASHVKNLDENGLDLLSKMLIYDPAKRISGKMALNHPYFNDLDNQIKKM
Sequence of CDK1/CycE1 (P24864 whole entry partner, species assumed): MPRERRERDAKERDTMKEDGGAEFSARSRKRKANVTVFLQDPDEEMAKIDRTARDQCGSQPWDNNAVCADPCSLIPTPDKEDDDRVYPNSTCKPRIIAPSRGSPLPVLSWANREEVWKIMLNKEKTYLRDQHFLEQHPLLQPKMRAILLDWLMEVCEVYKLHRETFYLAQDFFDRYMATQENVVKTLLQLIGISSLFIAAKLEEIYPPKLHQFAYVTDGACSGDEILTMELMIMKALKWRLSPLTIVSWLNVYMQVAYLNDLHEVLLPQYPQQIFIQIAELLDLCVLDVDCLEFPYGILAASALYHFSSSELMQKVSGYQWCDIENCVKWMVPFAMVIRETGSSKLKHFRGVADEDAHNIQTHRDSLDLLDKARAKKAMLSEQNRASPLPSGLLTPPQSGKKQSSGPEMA
Sequence of CDK5/p25NCK (Q00535 whole entry, species assumed): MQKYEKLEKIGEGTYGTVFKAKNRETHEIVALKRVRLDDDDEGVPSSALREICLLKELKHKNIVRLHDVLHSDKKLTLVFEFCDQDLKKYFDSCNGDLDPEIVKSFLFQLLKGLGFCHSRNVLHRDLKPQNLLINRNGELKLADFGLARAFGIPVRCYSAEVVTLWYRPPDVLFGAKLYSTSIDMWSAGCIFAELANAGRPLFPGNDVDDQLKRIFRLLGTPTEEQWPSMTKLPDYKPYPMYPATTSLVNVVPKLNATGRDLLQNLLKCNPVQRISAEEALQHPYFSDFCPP
Sequence of CDK5/p25NCK (Q15078 99-307 partner limits assumed, species assumed): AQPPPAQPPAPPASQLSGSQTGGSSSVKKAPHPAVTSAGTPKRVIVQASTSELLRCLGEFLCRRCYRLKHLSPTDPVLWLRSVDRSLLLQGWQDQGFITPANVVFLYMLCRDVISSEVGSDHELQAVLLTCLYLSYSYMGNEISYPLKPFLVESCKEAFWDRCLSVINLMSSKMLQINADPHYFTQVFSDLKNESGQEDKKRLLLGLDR
Sequence of CDK3/CycE1 (Q00526 whole entry, species assumed): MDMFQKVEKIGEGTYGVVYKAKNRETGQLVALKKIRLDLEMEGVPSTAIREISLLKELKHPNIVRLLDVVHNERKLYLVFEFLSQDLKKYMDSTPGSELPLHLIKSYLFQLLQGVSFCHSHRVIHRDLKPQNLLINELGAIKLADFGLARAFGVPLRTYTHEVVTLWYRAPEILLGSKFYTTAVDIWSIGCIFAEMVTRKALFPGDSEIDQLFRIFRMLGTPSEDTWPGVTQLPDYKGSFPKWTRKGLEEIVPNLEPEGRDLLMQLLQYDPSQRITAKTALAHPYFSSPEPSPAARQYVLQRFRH
Sequence of CDK3/CycE1 (P24864 whole entry partner, species assumed): as the sequence (P24864 whole entry partner, species assumed) above

Row | Compound | IC50 [1] [nM] | IC50 (CDK9/CycT1) [nM] | IC50 (CDK5/p25NCK) [nM] | IC50 (CDK1/CycE1) [nM] | IC50 (CDK2/CycA2) [nM] | IC50 (CDK3/CycE1) [nM]
1 | CC(C)Nc1nc(C#N)cc2cnc(N[C@H]3CC[C@H](N)C3)cc12 [Compound 28, 7-(((1S,3S)-3-aminocyclopentyl)amino)-1-(isopropylamino)-2,6-naphthyridine-3-carbonitrile] | 25 | 3 | 96 | 220 | 50 | 97
2 | CC(C)Nc1nc(C#N)cc2cnc(N[C@@H]3CC[C@@H](N)C3)cc12 [Compound 30, 7-(((1R,3R)-3-aminocyclopentyl)amino)-1-(isopropylamino)-2,6-naphthyridine-3-carbonitrile] | 14 | 2 | 31 |  | 15 | 95
3 | CC(C)Nc1nc(C#N)cc2cnc(N[C@H]3CC[C@H](O)C3)cc12 [Compound 33, 7-(((1S,3S)-3-hydroxycyclopentyl)amino)-1-(isopropylamino)-2,6-naphthyridine-3-carbonitrile] | 8 | 1 | 3 |  | 3 | 9
4 | CC(C)Nc1nc(C#N)cc2cnc(N[C@H]3CC[C@H](N)C3)nc12 [Compound 45, 2-(((1S,3S)-3-aminocyclopentyl)amino)-8-(isopropylamino)pyrido[3,4-d]pyrimidine-6-carbonitrile] | 22 | 2 | 153 | 114 | 47 | 85
5 | CC(C)Nc1nc(C(F)F)cc2cnc(N[C@H]3CC[C@H](N)C3)cc12 [Compound 52, N^7-((1S,3S)-3-aminocyclopentyl)-3-(difluoromethyl)-N^1-isopropyl-2,6-naphthyridine-1,7-diamine] | 9 | 1 | 16 |  | 12 | 23
6 | CC(C)Nc1nc(C#N)cc2cnc(N[C@H]3CCCNC3)nc12 [Compound 55, (S)-8-(isopropylamino)-2-(piperidin-3-ylamino)pyrido[3,4-d]pyrimidine-6-carbonitrile] | 26.1 | 1 | 56 | 43 | 60 | 24
